Source: patent US20110257225A1, “CYCLOHEXYLAMINE DERIVATIVE CONTAINING PHENYL GROUP, AND THERAPEUTIC AGENT FOR DISEASES ACCOMPANIED BY CENTRAL NERVOUS SYSTEM DISORDERS” (M'S Science Corporation, priority 2008, published 2011)

Legend:
[1] = tested on: rat cerebral cortex neural cells; experiment: Evaluation of neurite outgrowth-promoting activity in central neural cells; type: cell-based; conditions: cultured for 48 hours
sigma receptor = molecular target: T1, sigma receptor (Cavia porcellus, UniProt Q60492); experiment: Evaluation of affinity to sigma receptors ([3H](+)-pentazocine receptor binding, whole-brain membrane preparation); design: species or system guinea pig; conditions: for Ki: Ki from Dixon plot; for inhibition at 1 µM: compound concentration 1 × 10^−6 mol/L; for inhibition at 1 µM / inhibition at 0.1 µM / inhibition at 0.01 µM / inhibition at 0.001 µM / inhibition at 0.0001 µM / inhibition at 10 pM: [3H](+)-pentazocine, 25° C., 60 minutes, read-out: Inhibition rate (%); for inhibition at 0.1 µM: compound concentration 1 × 10^−7 mol/L; for inhibition at 0.01 µM: compound concentration 1 × 10^−8 mol/L; for inhibition at 0.001 µM: compound concentration 1 × 10^−9 mol/L; for inhibition at 0.0001 µM: compound concentration 1 × 10^−10 mol/L; for inhibition at 10 pM: compound concentration 1 × 10^−11 mol/L; for IC50: from logit-log regression of the dose-response curve
T1 construct: A membrane preparation as a sigma receptor obtained from the whole brain of guinea pigs; from tissue; host or cells: guinea pig whole brain membrane preparation
Protocol: The following measurement of radioactivity was performed according to a usual method after the binding reaction had been carried out at 25° C. for 60 minutes.
The inhibition rate was determined by the equation of “100−binding rate”. The binding rate is represented by the following equation:
The IC50 of the test substance was calculated from a regression equation to the dose-response curve. That is to say, the ratio y=(B−N)/(B0−N) wherein a value of (B−N) is a specific binding radioactivity in the presence of a test substance, and a value of (B0−N) is a specific binding radioactivity in the absence of a test substance was first subjected to logit conversion and applied to a logit-log model plotted against the common logarithm of the test substance concentration to create a dose-response curve. […] The regression equation to the dose-response curve used is as follows: […]
Then, for each concentration of the positive substances, the reaction rate was measured while changing the concentration of the test substance in a range including the IC50 to create the Dixon plot, and the Ki value was calculated from the test substance concentration giving an intersection of these straight lines.

[2] = tested on: rat cerebral cortex neural cells; experiment: Evaluation of neurite outgrowth-promoting activity in central neural cells; type: cell-based; conditions: 48 hours after addition, mean±standard error, control 18.0 ± 1.6
Protocol: The neurite outgrowth-promoting effects of the rat cerebral cortex neural cells on test substances were evaluated by the following method. The cerebral cortex neural cells were isolated from Wistar rats on the 18th day of pregnancy according to the method of Springer Neuroscience Lab Manual. That is to say, under ether anesthesia, a fetal rat was removed from the uterus of a pregnant rat on day 18, and transferred into a petri dish containing HBSS (manufactured by Gibco, Inc.) on ice. The cerebral cortex was cut out under a stereoscopic microscope. The cerebral cortex that had been cut out was dispersed with a neural cells dispersion solution (manufactured by Sumitomo Bakelite Co., Ltd.) to prepare rat cerebral cortex cells.
The resulting cerebral cortex cells were subjected to cell culture. Neurobasal medium (manufactured by Gibco, Inc.) supplemented with B27 Supplement (manufactured by Gibco, Inc.; Fin. 2% v/v), L-glutamine (manufactured by IBCO company; Fin. 0.5 mM) and GlutaMax I (manufactured by Gibco, Inc.; Fin. 0.5 mM) was used as the culture medium. The culture conditions were as follows: 5% CO2, 95% air, 100% humidity, and 37° C. The cells were inoculated to polylysine-coated 8-well slides (manufactured by IWAKI company) so as to have about 2×10^4 cells/well.
Compound [2], compound [3], compound [4], compound [5], compound [6], compound [7], compound [8], compound [9], compound [10], compound [11], and compound [12] (final•concentrations: 0.3 μM and 1.0 μM) were added as respective test substances to the culture solution at about 3 hours after the cell inoculation, and the culture solution with no additives was used as a control.
At 48 hours after the addition of the compounds, the cells were fixed by treatment with 4% paraformaldehyde (manufactured by Wako Pure Chemical Industries) at room temperature for about 30 minutes, and incubated with an anti-α-Tublin antibody (Anti-α-Tubulin Alexa Fluor 488 conjugate) recognizing a microtubule protein, at room temperature for one hour. After washing, the nucleus of the whole cell was stained with a nucleic acid-staining agent DAPI. The cells were observed under a fluorescence microscope at a magnification of 20 times. The stained cell image and the nuclear staining image in the same field of vision were imported into a computer as the image. Using an image analysis software (MethaMorph (registered trademark), Molecular Devises), the image imported into the computer was used to measure the “longest neurite length” that was the length of the longest neurite of individual cell in each field of vision. A cell having a length of the “longest neurite length” of 60 μm or more was defined as a “neurite forming cell” and the neurite forming activity was evaluated by the ratio of the “neurite forming cell” occupied in the number of the cells in the same field of vision. In other words, evaluation was performed by determining the rate of the neurite forming cells using the following equation:
Rate of neurite forming cells=[Number of neurite forming cells/Number of total cells in the same field of vision]×100

T1 sequence (Q60492 whole entry): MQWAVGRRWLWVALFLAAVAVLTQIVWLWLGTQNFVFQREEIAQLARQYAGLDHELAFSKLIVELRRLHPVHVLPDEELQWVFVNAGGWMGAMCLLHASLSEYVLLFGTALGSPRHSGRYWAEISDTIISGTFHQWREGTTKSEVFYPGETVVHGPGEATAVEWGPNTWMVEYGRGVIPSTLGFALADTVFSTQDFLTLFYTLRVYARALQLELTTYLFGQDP

Structure (SMILES)	ratio of cells extending dendrites compared with no additives (FIG. 1) ([1]; final concentration 1 μM)	ratio of cells having neurites having the length two or more times the cell body diameter (FIG. 2) ([1]; final concentrations 0.1 μM, 1 μM, 10 μM)	Ki (sigma receptor) [nM]	Neurite outgrowth-promoting activity (%) (rate of neurite forming cells, longest neurite 60 μm or more) ([2]; 0.3 μM)	Neurite outgrowth-promoting activity (%) (rate of neurite forming cells, longest neurite 60 μm or more) ([2]; 1.0 μM)	inhibition at 1 µM (sigma receptor) [%]	inhibition at 0.1 µM (sigma receptor) [%]	inhibition at 0.01 µM (sigma receptor) [%]	inhibition at 0.001 µM (sigma receptor) [%]	inhibition at 0.0001 µM (sigma receptor) [%]	inhibition at 10 pM (sigma receptor) [%]	IC50 (sigma receptor) [nM]
CCN(CCSc1ccccc1)C1CCCCC1 [Compound [2], N-(2-(phenylthio)ethyl)-N-ethylcyclohexylamine]	obviously higher than that of the case of no additives	significantly increased	1	37.4 ± 3.5	50.6 ± 1.4							
c1ccc(SCCN2CCCC3CCCCC32)cc1 (stereo not shown) [Compound [3], N-(2-phenylthio)ethyldecahydroquinoline]			1.6	32.8 ± 5.3	52.6 ± 1.2	99.9	100	90.4	46.8	6.31	2.84	1.2
CCN(CCSc1cccc(C(F)(F)F)c1)C1CCCCC1 [Compound [4], N-[2-(3-trifluoromethyl)phenylthio]ethyl-N-ethylcyclohexylamine]			0.8	21.4 ± 2.2	39.4 ± 2.5	100	100	99.7	95.2	23.5	10.4	0.189
CCN(CCSc1cccc(C(F)F)c1)C1CCCCC1 [Compound [5], N-[2-(3-difluoromethyl)phenylthio]ethyl-N-ethylcyclohexylamine]				41.6 ± 3.3	50.8 ± 2.8	97.5	99.2	98.6	92.8	20.8	1.25	0.222
CCN(CCSc1ccc(OC)c(OC)c1)C1CCCCC1 [Compound [6], N-[2-(3,4-dimethoxy)phenylthio]ethyl-N-ethylcyclohexylamine]			3.7		40.3 ± 3.4	99.9	99.1	98.1	86.6	19.9	1.75	0.268
CCN(CCSc1ccc(F)cc1)C1CCCCC1 [Compound [7], N-[2-(4-fluorophenylthio)ethyl]-N-ethylcyclohexylamine]			0.8	30.2 ± 2.5	53.3 ± 1.4	97.3	96.3	90	44.5	3.43	0	1.23
CCN(CCCc1ccccc1)C1CCCCC1 [Compound [8], N-(3-phenylpropyl)-N-ethylcyclohexylamine]			8.7	59.9 ± 1.8	61.7 ± 2.0							
CCN(CCCc1ccc(OC)cc1)C1CCCCC1 [Compound [9], N-[3-(4-methoxyphenyl)propyl]-N-ethylcyclohexylamine]			10.5	31.4 ± 5.8	59.6 ± 1.0							
CCN(CCCc1ccc(F)cc1)C1CCCCC1 [Compound [10], N-[3-(4-fluorophenyl)propyl]-N-ethylcyclohexylamine]			8.5	26.8 ± 1.1	57.0 ± 3.0							
CCN(CCOc1ccc(F)cc1)C1CCCCC1 [Compound [11], N-ethyl-N-[2-(4-fluorophenoxy)ethyl]cyclohexylamine]			2.4	43.5 ± 2.4	50.7 ± 2.2							
CCN(CCOc1ccccc1)C1CCCCC1 [Compound [12], N-ethyl-N-(2-phenoxyethyl)cyclohexylamine]			6.6	44.2 ± 1.4	32.2 ± 1.0							
COc1ccc(CCN2CCN(CCCc3ccccc3)CC2)cc1OC [Reference compound, SA4503, reference compound]				44.6 ± 2.2	58.4 ± 1.8							
